Source: patent US20250320496A1, “MODULATION OF ABCB11 GENE TRANSCRIPTION USING ANTISENSE OLIGONUCLEOTIDES TARGETING REGULATORY RNAS” (CAMP4 Therapeutics Corporation, priority 2022, published 2025)
Strand notation (5' to 3'): a small letter for the sugar, then the base; units joined by * are phosphorothioate-linked, units joined directly phosphodiester-linked; [ ] holds rarer units or linkages, { } end groups; capitals alone tell only the bases. e = 2'-O-(2-methoxyethyl) (MOE); l = locked nucleic acid (LNA); [5mC] = 5-methylcytosine; d = 2'-deoxy (DNA)

System: human ABCB11 mRNA
Assay: ASO treatment of primary human hepatocytes (PHH), ABCB11 mRNA by RT-qPCR normalized to B2M
Type: cell-based
Conditions: primary human hepatocytes; for ABCB11 mRNA FC (5 μM ASO vs. UNT): normalized to untreated PHHs (UNT)
How it was run: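 Plated primary human hepatocytes were treated 4 h post-thaw with ASO (e.g., 1.25–10 μM; initial screen 5 μM) in medium containing 0.3 mg/ml Matrigel for 72 hrs. Total RNA was reverse-transcribed and ABCB11 mRNA measured by Taqman RT-qPCR, normalized to B2M, with fold change versus untreated PHHs.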

| Substance | ABCB11 mRNA FC (5 μM ASO vs. UNT) [fold change] | ABCB11 FC mRNA (5 μM ASO vs. untreated) (5 μM ASO with PO-modifications, normalized to untreated hepatocytes) [fold change] |
| --- | --- | --- |
| CO-7114 (eG*eT*eG*eT*eT*eT*dT*dG*d[5mC]*dT*dT*dG*dG*dT*d[5mC]*dA*eA*eG*eA*eG*eG*eA; antisense) | 1.47 | – |
| CO-6987 (antisense eT*eG*eG*eA*lT*dG*dT*dA*lG*dA*dT*dG*lA*dA*dT*eG*lG*e[5mC]*eA*eA) | 1.026 | – |
| CO-7054 (antisense eA*e[5mC]*e[5mC]*e[5mC]*e[5mC]*d[5mC]*d[5mC]*dT*d[5mC]*dA*d[5mC]*d[5mC]*dT*dT*dG*eG*eT*eT*e[5mC]*e[5mC]) | 1.323 | – |
| CO-7161 (antisense eG*eA*eT*eG*eT*eG*eG*eA*eG*eG*eT*eG*eG*eA*eG*e[5mC]*eA*eA*eA*e[5mC]) | 1.324 | – |
| CO-7024 (antisense eG*e[5mC]*eT*eT*eA*eT*e[5mC]*eT*eG*eG*eA*eA*eA*eA*eT*eA*eA*eT*eG*e[5mC]) | 1.415 | – |
| CO-11215 (antisense eG*eT*lG*eGlA*eG*l[5mC]*eAlA*eA*l[5mC]*eTlA*eG*lG*e[5mC]lA*e[5mC]*eT*eG) | – | 2.68 |
| CO-7035 (antisense e[5mC]*eA*eT*eT*eT*dA*dG*dA*dG*dA*d[5mC]*dA*dA*dA*dG*eA*eA*eT*e[5mC]*eG) | 1.047 | – |
| CO-7026 (antisense eA*e[5mC]*eA*eG*eT*eG*eA*eG*e[5mC]*eT*eT*eA*eT*e[5mC]*eT*eG*eG*eA*eA*eA) | 1.158 | – |
